The text below walks through data of patent US20240059671A1, “TYROSINE KINASE 2 (TYK2) DEGRADATION COMPOUNDS AND METHODS OF USE” (CULLGEN (SHANGHAI), INC., priority 2020, published 2024).

Test [1] has as its target T1, TYK2 (Homo sapiens, UniProt P29597). Briefly: TYK2 protein degradation in NOMO-1 cells by immunoblotting. On the set-up: endogenous in cells. To be noted: NOMO-1 cells. It is filed as cell-based. The procedure:
NOMO-1 cells were treated with CPD-155, CPD-157, and CPD-158 at 0.1, 1, 10, 100 and 1000 nM concentrations for 16 hours. […] Data shown that CPD-155, CPD-157, and CPD-158 are very potent at the reduction protein levels of TYK2.
MOLT-4 or NOMO-1 cells were cultured at 37° C. with 5% CO2 in RPMI 1640 Medium supplemented with 10% fetal bovine serum. Cells were authenticated using the short tandem repeat (STR) assays. Mycoplasma test results were negative.
Cultured cells were washed with cold PBS once and lysed in cold RIPA buffer supplemented with protease inhibitors and phosphatase inhibitors (Beyotime Biotechnology). The solutions were then incubated at 4° C. for 30 minutes with gentle agitation to fully lyse cells. Cell lysates were centrifuged at 13,000 rpm for 10 minutes at 4° C. and pellets were discarded. Total protein concentrations in the lysates were determined by BCA assays (Beyotime Biotechnology). Cell lysates were mixed with Laemmli loading buffer to 1× and heated at 99° C. for 5 min. Proteins were resolved on SDS-PAGE and visualized by chemiluminescence. Images were taken by a ChemiDoc MP Imaging system (Bio-Rad). Protein bands were quantitated using the accompanied software provided by Bio-Rad.
A general note: In western blotting, separated proteins are transferred to a membrane and probed.

The target in test [2] is T1, TYK2. Kind of test: TYK2 protein degradation in MOLT-4 cells by immunoblotting. The test is classed as cell-based. On the set-up: endogenous in cells; host or cells: MOLT-4. Conditions: MOLT-4 cells, 24 hours. The gist of the method:
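Percent TYK2 degradation came from densitometry of chemiluminescent immunoblots of RIPA lysates. Before lysis, MOLT-4 cells had been treated for 24 h with each compound at 0.5 or 5 μM.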

Structures are written as SMILES.

T1 sequence (P29597 whole entry): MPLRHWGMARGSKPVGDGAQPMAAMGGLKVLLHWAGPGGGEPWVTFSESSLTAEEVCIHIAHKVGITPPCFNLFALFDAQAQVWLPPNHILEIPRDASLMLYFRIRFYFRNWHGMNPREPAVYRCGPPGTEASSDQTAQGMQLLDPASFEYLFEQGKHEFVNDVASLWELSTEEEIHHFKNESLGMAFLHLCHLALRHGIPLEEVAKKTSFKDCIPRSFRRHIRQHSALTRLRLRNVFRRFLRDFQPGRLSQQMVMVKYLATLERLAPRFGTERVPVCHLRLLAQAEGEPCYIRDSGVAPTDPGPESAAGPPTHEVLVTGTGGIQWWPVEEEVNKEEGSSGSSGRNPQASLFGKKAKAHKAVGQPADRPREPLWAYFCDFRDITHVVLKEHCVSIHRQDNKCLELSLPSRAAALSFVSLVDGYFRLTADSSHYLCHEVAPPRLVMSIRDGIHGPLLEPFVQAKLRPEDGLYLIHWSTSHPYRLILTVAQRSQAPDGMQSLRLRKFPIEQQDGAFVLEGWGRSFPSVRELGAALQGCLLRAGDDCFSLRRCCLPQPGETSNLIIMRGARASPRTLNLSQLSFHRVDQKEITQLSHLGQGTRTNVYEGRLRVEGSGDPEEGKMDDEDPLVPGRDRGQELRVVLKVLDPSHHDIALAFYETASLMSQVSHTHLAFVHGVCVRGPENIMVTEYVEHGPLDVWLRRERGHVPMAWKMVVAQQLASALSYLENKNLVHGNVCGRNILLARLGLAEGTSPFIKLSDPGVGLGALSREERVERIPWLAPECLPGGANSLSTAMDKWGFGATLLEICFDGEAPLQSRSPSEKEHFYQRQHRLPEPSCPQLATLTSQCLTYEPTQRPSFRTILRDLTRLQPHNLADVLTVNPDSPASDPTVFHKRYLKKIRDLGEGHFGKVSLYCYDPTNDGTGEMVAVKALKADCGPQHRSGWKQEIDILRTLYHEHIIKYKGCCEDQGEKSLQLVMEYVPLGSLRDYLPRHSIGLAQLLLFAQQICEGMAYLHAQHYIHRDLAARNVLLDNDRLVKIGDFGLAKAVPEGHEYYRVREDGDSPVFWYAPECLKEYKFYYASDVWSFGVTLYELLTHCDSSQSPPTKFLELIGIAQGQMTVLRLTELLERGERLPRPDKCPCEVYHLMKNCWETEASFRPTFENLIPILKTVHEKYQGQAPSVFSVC

For `CNC(=O)c1nnc(Nc2ccc(N3CCN(C(=O)CCCCCCC(=O)N[C@H](C(=O)N4C[C@H](O)C[C@H]4C(=O)N[C@@H](C)c4ccccc4)C(C)(C)C)CC3)cn2)cc1Nc1cccc(-c2ncn(C)n2)c1OC` [CDD-169, 6-((5-(4-(8-(((S)-1-((2S,4R)-4-hydroxy-2-(((S)-1-phenylethyl)carbamoyl)pyrrolidin-1-yl)-3,3-dimethyl-1-oxobutan-2-yl)amino)-8-oxooctanoyl)piperazin-1-yl)pyridin-2-yl)amino)-4-((2-methoxy-3-(1-methyl-1H-1,2,4-triazol-3-yl)phenyl)amino)-N-methylpyridazine-3-carboxamide], at TYK2 [1], the “TYK2 Degradation (NOMO-1, 10 nM)” value was “C (C: ≤20% TYK2 degradation)” and the “TYK2 Degradation (NOMO-1, 100 nM)” value is “C (C: ≤20% TYK2 degradation)”.
As to `CNC(=O)c1cnc(Nc2ccc(N3CCN(C(=O)CCCCCCC(=O)N[C@H](C(=O)N4C[C@H](O)C[C@H]4C(=O)N[C@@H](C)c4ccc(-c5scnc5C)cc4)C(C)(C)C)CC3)cn2)cc1Nc1ccccc1OC` [CDD-170, 6-((5-(4-(8-(((S)-1-((2S,4R)-4-hydroxy-2-(((S)-1-(4-(4-methylthiazol-5-yl)phenyl)ethyl)carbamoyl)pyrrolidin-1-yl)-3,3-dimethyl-1-oxobutan-2-yl)amino)-8-oxooctanoyl)piperazin-1-yl)pyridin-2-yl)amino)-4-((2-methoxyphenyl)amino)-N-methylnicotinamide], at TYK2 [1], the “TYK2 Degradation (NOMO-1, 10 nM)” value is “B (B: <60% TYK2 degradation, and >20% TYK2 degradation)”; the “TYK2 Degradation (NOMO-1, 100 nM)” value was “A (A: ≥60% TYK2 degradation)”.
With `CNC(=O)c1nnc(Nc2ccc(N3CCN(C(=O)CCCCCCC(=O)N[C@H](C(=O)N4C[C@H](O)C[C@H]4C(=O)NCc4ccc(C#N)cn4)C(C)(C)C)CC3)cn2)cc1Nc1cccc(-c2ncn(C)n2)c1OC` [CDD-172, 6-((5-(4-(8-(((S)-1-((2S,4R)-2-(((5-cyanopyridin-2-yl)methyl)carbamoyl)-4-hydroxypyrrolidin-1-yl)-3,3-dimethyl-1-oxobutan-2-yl)amino)-8-oxooctanoyl)piperazin-1-yl)pyridin-2-yl)amino)-4-((2-methoxy-3-(1-methyl-1H-1,2,4-triazol-3-yl)phenyl)amino)-N-methylpyridazine-3-carboxamide], on TYK2 [1], the “TYK2 Degradation (NOMO-1, 10 nM)” value is “C (C: ≤20% TYK2 degradation)” and the “TYK2 Degradation (NOMO-1, 100 nM)” value is on record as “C (C: ≤20% TYK2 degradation)”.
Turning to `CNC(=O)c1nnc(Nc2ccc(N3CCN(C(=O)CCCCCCC(=O)N[C@H](C(=O)N4C[C@H](O)C[C@H]4C(=O)N[C@H]4CCCc5c4cc(C#N)n5C)C(C)(C)C)CC3)cn2)cc1Nc1cccc(-c2ncn(C)n2)c1OC` [CDD-173, 6-((5-(4-(8-(((S)-1-((2S,4R)-2-(((S)-2-cyano-1-methyl-4,5,6,7-tetrahydro-1H-indol-4-yl)carbamoyl)-4-hydroxypyrrolidin-1-yl)-3,3-dimethyl-1-oxobutan-2-yl)amino)-8-oxooctanoyl)piperazin-1-yl)pyridin-2-yl)amino)-4-((2-methoxy-3-(1-methyl-1H-1,2,4-triazol-3-yl)phenyl)amino)-N-methylpyridazine-3-carboxamide], on TYK2 [1], the “TYK2 Degradation (NOMO-1, 10 nM)” value is “C (C: ≤20% TYK2 degradation)” and the “TYK2 Degradation (NOMO-1, 100 nM)” value is given as “C (C: ≤20% TYK2 degradation)”.
Take `CNC(=O)c1nnc(Nc2ccc(N3CCN(C(=O)CCCCCCC(=O)N[C@H](C(=O)N4C[C@H](O)C[C@H]4C(=O)N[C@H]4CCCc5[nH]c(=O)c(C)cc54)C(C)(C)C)CC3)cn2)cc1Nc1cccc(-c2ncn(C)n2)c1OC` [CDD-174, 6-((5-(4-(8-(((S)-1-((2S,4R)-4-hydroxy-2-(((S)-3-methyl-2-oxo-1,2,5,6,7,8-hexahydroquinolin-5-yl)carbamoyl)pyrrolidin-1-yl)-3,3-dimethyl-1-oxobutan-2-yl)amino)-8-oxooctanoyl)piperazin-1-yl)pyridin-2-yl)amino)-4-((2-methoxy-3-(1-methyl-1H-1,2,4-triazol-3-yl)phenyl)amino)-N-methylpyridazine-3-carboxamide]: on TYK2 [1], the “TYK2 Degradation (NOMO-1, 10 nM)” value is reported as “C (C: ≤20% TYK2 degradation)” and the “TYK2 Degradation (NOMO-1, 100 nM)” value is “C (C: ≤20% TYK2 degradation)”.
As for `CNC(=O)c1nnc(Nc2ccc(C(=O)NCCCNc3ccc4c(c3)C(=O)N(C3CCC(=O)NC3=O)C4=O)cn2)cc1Nc1cccc(-c2ncn(C)n2)c1OC` (stereo not shown) [CDD-175, 6-((5-((3-((2-(2,6-dioxopiperidin-3-yl)-1,3-dioxoisoindolin-5-yl)amino)propyl)carbamoyl)pyridin-2-yl)amino)-4-((2-methoxy-3-(1-methyl-1H-1,2,4-triazol-3-yl)phenyl)amino)-N-methylpyridazine-3-carboxamide], on TYK2 [1], the “TYK2 Degradation (NOMO-1, 10 nM)” value was “A (A: ≥60% TYK2 degradation)” and the “TYK2 Degradation (NOMO-1, 100 nM)” value is “A (A: ≥60% TYK2 degradation)”.
Consider `CNC(=O)c1nnc(NC(=O)CNC(=O)CCCCCCCOc2cc(-c3scnc3C)ccc2CNC(=O)[C@@H]2C[C@@H](O)CN2C(=O)[C@@H](NC(=O)C2(F)CC2)C(C)(C)C)cc1Nc1cccc(-c2ncn(C)n2)c1OC` [CPD-107, 6-(2-(8-(2-(((2S,4R)-1-((S)-2-(1-Fluorocyclopropane-1-carboxamido)-3,3-dimethylbutanoyl)-4-hydroxypyrrolidine-2-carboxamido)methyl)-5-(4-methylthiazol-5-yl)phenoxy)octanamido)acetamido)-4-((2-methoxy-3-(1-methyl-1H-1,2,4-triazol-3-yl)phenyl)amino)-N-methylpyridazine-3-carboxamide], for which, on TYK2 [2], the “TYK2 Degradation (MOLT-4, 0.5 μM)” value is on record as “C (C: ≤20% TYK2 degradation)” and the “TYK2 Degradation (MOLT-4, 5 μM)” value is “C (C: ≤20% TYK2 degradation)”.
Regarding `CNC(=O)c1nnc(NC(=O)CNC(=O)CCCCCCCCOc2cc(-c3scnc3C)ccc2CNC(=O)[C@@H]2C[C@@H](O)CN2C(=O)[C@@H](NC(=O)C2(F)CC2)C(C)(C)C)cc1Nc1cccc(-c2ncn(C)n2)c1OC` [CPD-108, 6-(2-(9-(2-(((2S,4R)-1-((S)-2-(1-Fluorocyclopropane-1-carboxamido)-3,3-dimethylbutanoyl)-4-hydroxypyrrolidine-2-carboxamido)methyl)-5-(4-methylthiazol-5-yl)phenoxy)nonanamido)acetamido)-4-((2-methoxy-3-(1-methyl-1H-1,2,4-triazol-3-yl)phenyl)amino)-N-methylpyridazine-3-carboxamide], on TYK2 [2], the “TYK2 Degradation (MOLT-4, 0.5 μM)” value is “C (C: ≤20% TYK2 degradation)” and the “TYK2 Degradation (MOLT-4, 5 μM)” value is reported as “C (C: ≤20% TYK2 degradation)”.
For the compound `CNC(=O)c1nnc(NC(=O)CNC(=O)CCCCCCCCCOc2cc(-c3scnc3C)ccc2CNC(=O)[C@@H]2C[C@@H](O)CN2C(=O)[C@@H](NC(=O)C2(F)CC2)C(C)(C)C)cc1Nc1cccc(-c2ncn(C)n2)c1OC` [CPD-109, 6-(2-(10-(2-(((2S,4R)-1-((S)-2-(1-Fluorocyclopropane-1-carboxamido)-3,3-dimethylbutanoyl)-4-hydroxypyrrolidine-2-carboxamido)methyl)-5-(4-methylthiazol-5-yl)phenoxy)decanamido)acetamido)-4-((2-methoxy-3-(1-methyl-JH-1,2,4-triazol-3-yl)phenyl)amino)-N-methylpyridazine-3-carboxamide], on TYK2 [2], the “TYK2 Degradation (MOLT-4, 0.5 μM)” value is “B (B: <60% TYK2 degradation, and >20% TYK2 degradation)”; the “TYK2 Degradation (MOLT-4, 5 μM)” value is given as “A (A: ≥60% TYK2 degradation)”.
Turning to `CNC(=O)c1nnc(NC(=O)CNC(=O)CCCCCCCCCCOc2cc(-c3scnc3C)ccc2CNC(=O)[C@@H]2C[C@@H](O)CN2C(=O)[C@@H](NC(=O)C2(F)CC2)C(C)(C)C)cc1Nc1cccc(-c2ncn(C)n2)c1OC` [CPD-110, 6-(2-(11-(2-(((2S,4R)-1-((S)-2-(1-fluorocyclopropane-1-carboxamido)-3,3-dimethylbutanoyl)-4-hydroxypyrrolidine-2-carboxamido)methyl)-5-(4-methylthiazol-5-yl)phenoxy)undecanamido)acetamido)-4-((2-methoxy-3-(1-methyl-1H-1,2,4-triazol-3-yl)phenyl)amino)-N-methylpyridazine-3-carboxamide], at TYK2 [2], the “TYK2 Degradation (MOLT-4, 0.5 μM)” value is recorded as “A (A: ≥60% TYK2 degradation)” and the “TYK2 Degradation (MOLT-4, 5 μM)” value is listed as “A (A: ≥60% TYK2 degradation)”.
For the compound `CNC(=O)c1nnc(Nc2ccc(N3CCN(C(=O)CC(=O)N[C@H](C(=O)N4C[C@H](O)C[C@H]4C(=O)NCc4ccc(-c5scnc5C)cc4)C(C)(C)C)CC3)cn2)cc1Nc1cccc(-c2ncn(C)n2)c1OC` [CPD-111, 6-((5-(4-(3-(((S)-1-((2S,4R)-4-Hydroxy-2-((4-(4-methylthiazol-5-yl)benzyl)carbamoyl)pyrrolidin-1-yl)-3,3-dimethyl-1-oxobutan-2-yl)amino)-3-oxopropanoyl)piperazin-1-yl)pyridin-2-yl)amino)-4-((2-methoxy-3-(1-methyl-1H-1,2,4-triazol-3-yl)phenyl)amino)-N-methylpyridazine-3-carboxamide], on TYK2 [2], the “TYK2 Degradation (MOLT-4, 0.5 μM)” value is “B (B: <60% TYK2 degradation, and >20% TYK2 degradation)”; the “TYK2 Degradation (MOLT-4, 5 μM)” value was “B (B: <60% TYK2 degradation, and >20% TYK2 degradation)”.
